This passage reports IC50 and inhibition results from ChEMBL document CHEMBL1148720, “Extensive SAR and computational studies of 3-{4-[(benzylmethylamino)methyl]phenyl}-6,7-dimethoxy-2H-2-chromenone (AP2238) derivatives” (J Med Chem, 2007).

As a reminder, the IC50 is the concentration that gives 50% inhibition. Broadly, the inhibition is the change of the read-out against control, counted positive when it falls. A lower inhibition goes with a weak effect.

Some results are limits rather than exact numbers.

Assay [1] has as its target T1, Acetylcholinesterase (Homo sapiens, UniProt P22303). In words: Inhibition of human recombinant AChE.
In assay [2] the target is T1, Acetylcholinesterase. In words: Inhibition of human AChE-mediated beta amyloid 1-40 aggregation at 100 uM.
The target of the next assay is Cholinesterase (Homo sapiens, UniProt P06276). In words: Inhibition of human recombinant BChE.
Chain of Cholinesterase (P06276 whole entry): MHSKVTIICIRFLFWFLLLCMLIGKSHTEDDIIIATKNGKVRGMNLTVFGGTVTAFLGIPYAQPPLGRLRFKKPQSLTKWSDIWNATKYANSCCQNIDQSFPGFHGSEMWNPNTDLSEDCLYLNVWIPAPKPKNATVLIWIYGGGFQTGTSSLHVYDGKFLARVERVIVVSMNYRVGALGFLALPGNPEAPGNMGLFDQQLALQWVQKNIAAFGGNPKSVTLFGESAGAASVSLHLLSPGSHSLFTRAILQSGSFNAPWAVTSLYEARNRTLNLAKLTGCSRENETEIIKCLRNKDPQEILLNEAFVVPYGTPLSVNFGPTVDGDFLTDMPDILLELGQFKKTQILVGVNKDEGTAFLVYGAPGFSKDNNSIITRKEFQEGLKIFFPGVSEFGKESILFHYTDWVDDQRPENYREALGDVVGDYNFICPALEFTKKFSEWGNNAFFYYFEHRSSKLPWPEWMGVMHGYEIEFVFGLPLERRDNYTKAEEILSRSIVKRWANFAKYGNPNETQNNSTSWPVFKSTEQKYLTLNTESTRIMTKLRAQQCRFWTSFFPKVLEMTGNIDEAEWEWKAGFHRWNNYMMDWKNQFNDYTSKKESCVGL

T1 sequence (P22303 whole entry): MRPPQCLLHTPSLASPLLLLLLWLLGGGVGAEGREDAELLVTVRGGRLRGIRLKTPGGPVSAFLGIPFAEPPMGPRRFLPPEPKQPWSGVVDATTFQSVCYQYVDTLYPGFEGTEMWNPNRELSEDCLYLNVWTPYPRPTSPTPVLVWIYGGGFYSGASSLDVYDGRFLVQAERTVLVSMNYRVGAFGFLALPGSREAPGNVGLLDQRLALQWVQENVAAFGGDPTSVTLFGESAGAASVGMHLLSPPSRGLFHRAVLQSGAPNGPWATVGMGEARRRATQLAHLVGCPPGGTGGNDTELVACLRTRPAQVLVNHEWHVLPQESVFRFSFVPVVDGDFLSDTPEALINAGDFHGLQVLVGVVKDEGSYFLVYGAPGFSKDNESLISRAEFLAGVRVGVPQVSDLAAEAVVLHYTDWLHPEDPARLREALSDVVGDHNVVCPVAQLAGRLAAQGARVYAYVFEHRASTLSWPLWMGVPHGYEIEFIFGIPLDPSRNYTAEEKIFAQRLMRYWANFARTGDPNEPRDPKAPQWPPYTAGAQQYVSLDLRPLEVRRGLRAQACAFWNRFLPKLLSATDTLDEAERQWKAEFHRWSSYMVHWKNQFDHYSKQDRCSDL

`COc1cc2oc(-c3cccc(CN(C)Cc4ccccc4)c3)cc(=O)c2cc1OC`: at Acetylcholinesterase [1], the IC50 turned out to be 2.27 µM.
As to `CN(Cc1ccccc1)Cc1ccc(-c2cc3cc(N)ccc3oc2=O)cc1`, the half-inhibitory concentration (IC50) on Acetylcholinesterase [1] turned out to be 0.281 µM. Also, on Acetylcholinesterase [2], the inhibition was less than 5%.
On to `COc1cc2cc(-c3ccc(CN(C)Cc4cccc([N+](=O)[O-])c4)cc3)c(=O)oc2cc1OC`, for which the IC50 on Acetylcholinesterase [1] came to 0.368 µM.
The same measure, in the same setting: the result for `COc1cc2occ(-c3cccc(CN(C)Cc4ccccc4)c3)c(=O)c2cc1OC` reads 2.02 µM.
Take `COc1ccc2cc(-c3ccc(CN(C)Cc4ccccc4)cc3)c(=O)oc2c1`: the IC50 was found to be 570 µM at Cholinesterase and 0.892 µM on Acetylcholinesterase [1]. On Acetylcholinesterase [2], this compound came in with an inhibition of less than 5%.
As to `COc1ccc2c(=O)cc(-c3ccc(CN(C)Cc4ccccc4)cc3)oc2c1`, on Acetylcholinesterase [1], the IC50 came out at 80.5 µM.
`COc1cc2cc(-c3ccc(CN(C)Cc4ccccc4)cc3)c(=O)oc2cc1OC`: the inhibition at Acetylcholinesterase [2] was found to be 35%.
For `CCN(Cc1ccccc1)Cc1cccc(-c2coc3cc(OC)c(OC)cc3c2=O)c1`, the IC50 at Acetylcholinesterase [1] turned out to be 1.59 µM.
On the same count and under the same terms, the result for `COc1cc2cc(-c3ccc(CN(C)Cc4cccc(C)c4)cc3)c(=O)oc2cc1OC` reads 0.122 µM.
For the compound `COc1cc2cc(-c3ccc(CN(CCO)Cc4ccccc4)cc3)c(=O)oc2cc1OC`, the values for the IC50 at Cholinesterase and on Acetylcholinesterase [1] were 35.1 µM and 0.0493 µM, respectively. Besides, the inhibition on Acetylcholinesterase [2] amounted to 6%.
Turning to `COc1cc2cc(-c3ccc(CN(C)Cc4ccccc4C)cc3)c(=O)oc2cc1OC`, the IC50 at Acetylcholinesterase [1] turned out to be 0.366 µM.
Same read-out and setting: the result for `COc1ccc(CN(C)Cc2ccc(-c3cc4cc(OC)c(OC)cc4oc3=O)cc2)cc1` reads 2.26 µM; that for `COc1cc2cc(-c3ccc(CN(C)Cc4ccc(C)cc4)cc3)c(=O)oc2cc1OC`, 0.31 µM.
With `COc1ccc2oc(=O)c(-c3cccc(CN(C)Cc4ccccc4)c3)cc2c1`, the IC50 came out at 136 µM at Cholinesterase and 0.303 µM on Acetylcholinesterase [1].
For the compound `COc1ccccc1CN(C)Cc1ccc(-c2cc3cc(OC)c(OC)cc3oc2=O)cc1`, the IC50 on Cholinesterase was found to be 52.9 µM; at Acetylcholinesterase [1], 0.0621 µM. In addition, the inhibition against Acetylcholinesterase [2] was determined as 15%.
As to `CN(Cc1ccccc1)Cc1ccc(-c2cc3cc([N+](=O)[O-])ccc3oc2=O)cc1`, the IC50 on Acetylcholinesterase [1] worked out at 0.148 µM. Besides, the inhibition on Acetylcholinesterase [2] is less than 5%.
As to `COc1cc2cc(-c3ccc(C[N+](C)(C)Cc4ccccc4)cc3)c(=O)oc2cc1OC`, the IC50 on Cholinesterase was 43.8 µM; on Acetylcholinesterase [1] it was 0.0105 µM.
Turning to `COc1cc2cc(-c3cccc(CN(C)Cc4ccccc4)c3)c(=O)oc2cc1OC`, the values for the IC50 on Cholinesterase and at Acetylcholinesterase [1] were 279 µM and 0.202 µM, respectively. Also, at Acetylcholinesterase [2], the inhibition was determined as 25%.
For the compound `CCN(Cc1ccccc1)Cc1ccc(-c2cc3cc(OC)c(OC)cc3oc2=O)cc1`, the IC50 at Acetylcholinesterase [1] stood at 0.0183 µM. This compound displayed an inhibition at Acetylcholinesterase [2] of 38%.
As to `COc1cc2oc3cc(CN(C)Cc4ccccc4)ccc3c(=O)c2cc1OC`, the IC50 on Acetylcholinesterase [1] amounted to 30.3 µM.
On to `COc1cc2occ(-c3ccc(CN(C)Cc4ccccc4)cc3)c(=O)c2cc1OC`, for which the IC50 at Acetylcholinesterase [1] turned out to be 1.23 µM.
`COc1cc2cc(-c3ccc(CN(C)Cc4ccccc4[N+](=O)[O-])cc3)c(=O)oc2cc1OC`: the IC50 at Acetylcholinesterase [1] came to 0.987 µM.
On the same count and under the same terms, the result for `COc1cccc(CN(C)Cc2ccc(-c3cc4cc(OC)c(OC)cc4oc3=O)cc2)c1` reads 0.714 µM.
Regarding `COc1ccc2oc(-c3ccc(CN(C)Cc4ccccc4)cc3)cc(=O)c2c1`, the IC50 at Cholinesterase worked out at 88.9 µM; on Acetylcholinesterase [1], 18.1 µM.
Take `COc1ccc2oc(=O)c(-c3ccc(CN(C)Cc4ccccc4)cc3)cc2c1`: the IC50 on Cholinesterase came to 1300 µM; at Acetylcholinesterase [1], 0.163 µM. Also, the inhibition on Acetylcholinesterase [2] is less than 5%.
Consider `COc1ccc2cc(-c3cccc(CN(C)Cc4ccccc4)c3)c(=O)oc2c1`, for which the IC50 at Acetylcholinesterase [1] came out at 2.29 µM.
